Literature values, collected in patent US7202251B2, “Bicyclic anilide spirohydantoin CGRP receptor antagonists” (Merck & Co., Inc., priority 2003, dated 2007).
Ends that are not written are not given here.

Legend:
facial blood flow [1] = details: rat, trigeminal ganglion stimulation
[2] = test system: middle meningeal artery diameter; details: rats, electrical stimulation of the dura mater, prior administration
facial blood flow [3] = details: marmoset, electrical stimulation of the trigeminal ganglion

| Compound | effect on increased facial blood flow (facial blood flow [1]) | effect on increase of middle meningeal artery diameter [2] | effect on increase in facial blood flow (facial blood flow [3]) |
| --- | --- | --- | --- |
| CGRP(8-37): a peptide CGRP antagonist (VTHRLAGLLSRSGGVVKNNFVPTNVGSKAF; ends and bridges not checked; UniProt P06881 90-119, looked up, fragment) | inhibited | blocked |  |
| NCCCC[C@H](NC(=O)[C@@H](Cc1cc(Br)c(O)c(Br)c1)NC(=O)N1CCC(N2Cc3ccccc3NC2=O)CC1)C(=O)N1CCN(c2ccncc2)CC1 [BIBN4096BS] |  |  | blocked |
